The values below come from patent EP4789671A1, “PHARMACEUTICAL COMPOSITION CONTAINING URACIL DERIVATIVE” (priority 2023, dated 2025).

Data set [1] has as its system SARS-CoV-2. The data set can be described thus: Cytopathic effect (CPE) suppression test using HEK293T/ACE2-TMPRSS2 cells (Test Example 1). Conditions: Severe acute respiratory syndrome coronavirus 2, HEK-293T, 72 h. The data set is classed as cell-based.
Data set [2] concerns the target T1, Recombinant SARS-CoV-2 3CL Protease (Severe acute respiratory syndrome coronavirus 2, UniProt P0DTD1).
T1 construct: Recombinant SARS-CoV-2 3CL Protease; purchased
As to the kind of experiment: Inhibitory activity test on SARS-CoV-2 3CL protease (Test Example 2-1). The data set is classed as biochemical. Conditions: 8 µM substrate, 6 nM or 0.6 nM enzyme, 3 to 5 hours.

Data set [3] deals with SARS-CoV-2. As to the kind of experiment: Inhibitory activity of cytopathic effect (CPE) in VeroE6/TMPRSS2 cells (Test Example 3). The data set is classed as cell-based. A general note: Cytopathic effects are the visible damage that an infection or toxin causes in cultured cells.
A further data set relates to HCoV-OC43. As to the kind of experiment: microbe, parasite or virus in culture. The class given is cell-based. As to conditions: Betacoronavirus 1, OC43, MRC5; MRC-5 cells, 72 hours.
Data set [4] in a line: Cytotoxicity in MRC-5 cells in the absence of virus (Test Example 5). The data set is classed as cell-based. As to conditions: human. On the procedure:
MRC-5 cells (2×10^4 cells/well) suspended in growth medium (DMEM supplemented with 10% FBS and penicillin-streptomycin) were seeded into 96-well plates on the day before infection. On the following day, HCoV-OC43 (300 TCID50/well) suspended in maintenance medium (MEM supplemented with 2% FBS and penicillin-streptomycin) was added to infect the cells for 1 hour. The viral fluid is then removed, maintenance medium containing the reagent to be tested is added, and cultured for 72 hours in a CO2 incubator. To evaluate the cytotoxicity of the reagent to be tested, the same procedure was performed in the absence of virus.
The plate that has been cultured for 72 hours is returned to room temperature, subsequently CellTiter-Glo (registered trademark) 2.0 is dispensed into each well, and the plate is mixed using a plate mixer. After standing for a predetermined period of time, the luminescent signal (Lum) is measured using a plate reader.

The test system of the next data set is HCoV-229E. The data set can be described thus: microbe, parasite or virus in culture. The class given is cell-based. Conditions: Human coronavirus 229E, MRC5; MRC-5 cells, 72 hours.
The test system of data set [5] is SARS-CoV-2 hCoV-19/Japan/TY7-501/2021. As to the kind of experiment: Effect of human, mouse and hamster sera on anti-SARS-CoV-2 activity (Test Example 7). As to conditions: Severe acute respiratory syndrome coronavirus 2, 24 h, VeroE6/TMPRSS2 cells, viral RNA, 1 day. The data set is classed as cell-based.
Data set [6] relates to SARS-CoV-2 hCoV-19/Japan/TY41-702/2022 (Omicron BE.1/BA.5-like). The data set can be described thus: Viral proliferation-suppression effect using human airway epithelial cells (Test Example 8). The data set is classed as cell-based. As to conditions: Severe acute respiratory syndrome coronavirus 2, Epithelial cell, 48 h.
For data set [7], the system named is SARS-CoV-2 hCoV-19/Japan/TY41-702/2022 strain (Omicron BE.1/BA.5-like). On the set-up: species or system Syrian hamsters. Conditions: hamster, in vivo.
Data set [8] shares this test system. On the set-up: species or system Syrian hamsters. As to conditions: hamster, in vivo. This is another data set of the same source.
Data set [9] shares this test system. The class given is in vivo, Syrian hamsters.
For data set [10], the system named is SARS-CoV-2 hCoV-19/Japan/TY11-927/2021 (Delta). The class given is in vivo, Syrian hamsters. Conditions: 4 days after initiation of co-housing.
The subject of data set [11] is SARS-CoV-2 hCoV-19/Japan/TY11-927/2021. The data set is classed as in vivo, Syrian hamsters. Conditions: aged (11-month-old) hamsters.

Each structure is given as a SMILES string. Where “and” joins values, the source holds several entries; their conditions need not be identical. Equal values may be shown once. Read-outs that look alike come from different tables or passages of the source. A value given as a limit tells only on which side of the number the result lay.

As a reminder, the EC50 is the concentration giving half of the maximal effect. High values mean lower potency in that assay, low ones higher potency in that assay. Take `[2H]c1cc(F)c(Cl)c([2H])c1-c1c(N2CC3(C2)CC(F)(F)C3)n(CC#N)c(=[18O])n(-c2cncc(Cl)c2)c1=[18O]` [Compound I-2]: the EC50 in the data set with SARS-CoV-2 [1] was 2.36 nM.

For orientation: IC50 means the concentration at which inhibition is half-maximal. In the case of `C#CCn1c(N2CC3(C2)CC(F)(F)C3)c(-c2ccc(F)c(Cl)c2)c(=O)n(-c2cncc(Cl)c2)c1=O` [Compound II-1], the half-maximal inhibitory concentration (IC50) in data set [2] was 0.68 nM.

By CC50 is commonly meant the concentration at which the toxic effect on the cells reaches its halfway point. Read a low CC50 as harm at low concentration. As usually defined, the EC90 is the concentration at which the effect reaches the 90% level. With `N#CCn1c(N2CC3(C2)CC(F)(F)C3)c(-c2ccc(F)c(Cl)c2)c(=O)n(-c2cncc(Cl)c2)c1=O` [Compound I-1], the half-maximal effective concentration (EC50) with SARS-CoV-2 [1] was 1.66 nM; in the data set with SARS-CoV-2 [3] (Severe acute respiratory syndrome coronavirus 2, VeroE6/TMPRSS2, Alpha, B. 1. 1. 7, strain QHN002) it was 3.85 ± 1.41 nM; in the data set with SARS-CoV-2 [3] (Severe acute respiratory syndrome coronavirus 2, VeroE6/TMPRSS2, Ancestral, Pango lineage A, strain WK-521) it was 8.77 ± 1.92 nM; in the data set on SARS-CoV-2 [3] (Severe acute respiratory syndrome coronavirus 2, VeroE6/TMPRSS2, Beta, B. 1. 351, strain TY8-612), 9.64 ± 1.2 nM; with SARS-CoV-2 [3] (Severe acute respiratory syndrome coronavirus 2, VeroE6/TMPRSS2, Delta, AY. 122, strain TY11-927), 4.91 ± 1.29 nM; with SARS-CoV-2 [3] (Severe acute respiratory syndrome coronavirus 2, VeroE6/TMPRSS2, Gamma, P. 1, strain TY7-501), 8.91 ± 1.62 nM. Further, the concentration for a half-maximal effect (EC50) in the data set with SARS-CoV-2 [3] (Severe acute respiratory syndrome coronavirus 2, VeroE6/TMPRSS2, Omicron BA. 1. 1, strain TY38-871) came out at 2.63 nM; in the data set on SARS-CoV-2 [3] (Severe acute respiratory syndrome coronavirus 2, VeroE6/TMPRSS2, Omicron BA. 2, strain TY40-385), 7.38 ± 3.82 nM; in the data set on SARS-CoV-2 [3] (Severe acute respiratory syndrome coronavirus 2, VeroE6/TMPRSS2, Omicron BA. 2. 12. 1, strain TY41-721) it was 2.27 ± 0.26 nM; in the data set on SARS-CoV-2 [3] (Severe acute respiratory syndrome coronavirus 2, VeroE6/TMPRSS2, Omicron BA. 2. 75, strain TY41-716) it was 8.44 ± 1.25 nM; in the data set with SARS-CoV-2 [3] (Severe acute respiratory syndrome coronavirus 2, VeroE6/TMPRSS2, Omicron BA. 4. 1, strain TY41-703) it was 2.45 ± 0.4 nM; with SARS-CoV-2 [3] (Severe acute respiratory syndrome coronavirus 2, VeroE6/TMPRSS2, Omicron BA. 4. 6, strain TY41-763), 6.91 ± 1.21 nM. Further, the EC50 in the data set on SARS-CoV-2 [3] (Severe acute respiratory syndrome coronavirus 2, VeroE6/TMPRSS2, Omicron BA. 5. 2. 1, strain TY41-704) worked out at 6.8 ± 1.38 nM; with SARS-CoV-2 [3] (Severe acute respiratory syndrome coronavirus 2, VeroE6/TMPRSS2, Omicron BE. 1/BA. 5-like, strain TY41-702) it was 6.54 ± 3.49 nM; with SARS-CoV-2 [3] (Severe acute respiratory syndrome coronavirus 2, VeroE6/TMPRSS2, Omicron BF. 7, strain TY41-820), 9.49 ± 0.56 nM; in the data set with SARS-CoV-2 [3] (Severe acute respiratory syndrome coronavirus 2, VeroE6/TMPRSS2, Omicron BF. 7. 4. 1, strain TY41-828), 7.39 ± 1.97 nM; in the data set on SARS-CoV-2 [3] (Severe acute respiratory syndrome coronavirus 2, VeroE6/TMPRSS2, Omicron BQ. 1. 1, strain TY41-796) it was 11 ± 1.7 nM; in the data set with SARS-CoV-2 [3] (Severe acute respiratory syndrome coronavirus 2, VeroE6/TMPRSS2, Omicron CH. 1. 1. 11, strain TY41-832), 5.69 ± 2.44 nM. Also, the EC50 in the data set with SARS-CoV-2 [3] (Severe acute respiratory syndrome coronavirus 2, VeroE6/TMPRSS2, Omicron XBB. 1, strain TY41-795) is 5.11 ± 2.15 nM; in the data set with SARS-CoV-2 [3] (Severe acute respiratory syndrome coronavirus 2, VeroE6/TMPRSS2, Omicron XBB. 1. 5, strain 23-018), 7.4 ± 1.08 nM; with SARS-CoV-2 [3] (Severe acute respiratory syndrome coronavirus 2, VeroE6/TMPRSS2, Omicron XBB. 1. 9. 1, strain TY41-951), 12.6 ± 0.9 nM; in the data set with SARS-CoV-2 [3] (Severe acute respiratory syndrome coronavirus 2, VeroE6/TMPRSS2, Omicron XBB. 1. 16, strain TY41-984), 7.06 ± 2 nM; in the data set on SARS-CoV-2 [3] (Severe acute respiratory syndrome coronavirus 2, VeroE6/TMPRSS2, Omicron XBF, strain TY41-831), 6.27 ± 3.3 nM; in the data set on SARS-CoV-2 [3] (Severe acute respiratory syndrome coronavirus 2, VeroE6/TMPRSS2, Omicron XE, strain TY41-686) it was 7.1 ± 2.59 nM. Moreover, the EC50 in the data set on HCoV-OC43 amounted to 92 ± 21 nM; with HCoV-229E, 3.57 ± 0.51 µM. The 50% cytotoxic concentration (CC50) at 72 h in data set [4] was greater than 100 µM. Besides, the EC90 is 8.17 nM in data set [5] (extrapolated to 100% hamster serum by linear regression, read-out: Hamster serum PA-EC90); 7.9 nM in data set [5] (extrapolated to 100% human serum by linear regression, read-out: Human serum PA-EC90); 19.8 nM in [5] (extrapolated to 100% mouse serum by linear regression, read-out: Mouse serum PA-EC90); 2.41 ± 1.61 nM in data set [6]. For the same molecule, the lung weight/body weight in data set [7] was 8.24 mg/g and 5.75 mg/g and 5.57 mg/g. Further, the body weight entry in data set [8] is “the decrease in body weight was suppressed”. For the same molecule, the body weight loss entry in data set [9] (hamster, in vivo) is “suppression of the body weight loss was observed”; in data set [11] (up to 10 days), “suppression of the body weight loss was observed”. Further, the “viral titers in nasal turbinate homogenates” value in [9] (hamster, in vivo) is 4.80 log10 TCID50/mL and 3.36 log10 TCID50/mL and 5.38 log10 TCID50/mL and 5.01 log10 TCID50/mL. Moreover, in data set [9] (hamster, in vivo, sc), the “plasma concentration exhibiting the effect of suppressing viral proliferation in lung and nasal turbinate homogenates” value is given as no less than 12 ng/mL. Further, the “plasma concentrations at the time of viral infection exhibiting the effect of suppressing body weight loss” value in [9] (prophylactic subcutaneous administration) was no less than 6 ng/mL. In addition, the “numbers of non-infected hamsters (Contact) in which viral titers in nasal lavage fluid or supernatants of lung homogenate reached the detection limit (1.8 log10 TCID50/mL) or higher” value is given as 5/6 in data set [10] (3 mg/kg single subcutaneous to Contact 12 hours prior to co-housing), 6/6 in [10] (10 mg/kg single subcutaneous to Contact 12 hours prior to co-housing), 3/6 in data set [10] (30 mg/kg single subcutaneous to Contact 12 hours prior to co-housing) and 0/6 in data set [10] (90 mg/kg single subcutaneous to Contact 12 hours prior to co-housing). Moreover, the survival entry in data set [11] is on record as “all hamsters survived until 10 days after infection”. The “plasma concentrations immediately before infection” value is 6.1 ng/mL (3 mg/kg subcutaneous, administered one day prior to infection); 5.9 ng/mL (3 mg/kg subcutaneous, administered three days prior to infection); 12.5 ng/mL (10 mg/kg subcutaneous, administered one day prior to infection); 3.0 ng/mL (10 mg/kg subcutaneous, administered three days prior to infection).
